PubChem BioAssay (NCI)
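Compound exposure: 48 hours, 5 concentrations, 96-well plates. The concentration for 50% growth inhibition is given as GI50. TGI: total growth inhibition.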

Experiments:
Test in all cases: NCI-60 cell line screen, 48 h
COLO 205 colon = system: COLO 205 colon
HCC-2998 colon = system: HCC-2998 colon
HCT-116 colon = system: HCT-116 colon
HT29 colon = system: HT29 colon
K-562 leukemia = system: K-562 leukemia
MDA-MB-231 breast = system: MDA-MB-231 breast
NCI-H522 lung = system: NCI-H522 lung
RXF 393 renal = system: RXF 393 renal
SF-295 CNS = system: SF-295 CNS
SK-MEL-28 melanoma = system: SK-MEL-28 melanoma

Compound | GI50 (COLO 205 colon) [nM] | TGI (COLO 205 colon) [nM] | GI50 (HCC-2998 colon) [nM] | TGI (HCC-2998 colon) [nM] | GI50 (HCT-116 colon) [nM] | TGI (HCT-116 colon) [nM] | GI50 (HT29 colon) [nM] | TGI (HT29 colon) [nM] | GI50 (K-562 leukemia) [nM] | TGI (K-562 leukemia) [nM] | GI50 (MDA-MB-231 breast) [nM] | TGI (MDA-MB-231 breast) [nM] | GI50 (NCI-H522 lung) [nM] | TGI (NCI-H522 lung) [nM] | GI50 (RXF 393 renal) [nM] | TGI (RXF 393 renal) [nM] | GI50 (SF-295 CNS) [nM] | TGI (SF-295 CNS) [nM] | GI50 (SK-MEL-28 melanoma) [nM] | TGI (SK-MEL-28 melanoma) [nM]
Cn1cc(-c2ccc(=O)n(Cc3cccc(-c4ncc(OCCN5CCOCC5)cn4)c3)n2)cn1 | 53700 | > 100000 | > 100000 | > 100000 | 56500 | > 100000 | > 100000 | > 100000 | 99300 | > 100000 | > 78000 | > 100000 | 74800 | > 100000 | > 75400 | > 100000 | 490 | > 100000 | > 89500 | > 100000
CCCCCCCCCCCCc1ccc(C(=O)/C=C/C(=O)O)cc1 | 1830 | 3840 | 5450 | 17700 | 1540 | 3390 | 1810 | 4000 | 2130 | 5740 | 1850 | 4500 | 1980 | 4730 | 1760 | 3340 | 12500 | 25500 | 1920 | 3740
COc1ccccc1C(=O)/C=C/c1cc2cccc(OC)c2[nH]c1=O | 48.1 | 1430 | 141 | 1300 | < 22.5 | 632 | < 13.1 | 4020 | < 12.5 | > 89100 | 151 | 1790 | 101 | 2160 | 58.4 | 991 | 25.6 | 3850 | 1080 | 6630
COc1ccc(N(C)c2nc(C)nc3ccccc23)cc1 | < 10 | < 10 | < 10 | 4310 | < 10 | > 36000 | < 10 | – | < 10 | > 100000 | < 10 | > 100000 | < 10 | < 10 | < 10 | > 100000 | < 10 | – | 19300 | > 100000
O=C1c2cc3c(cc2-c2c1c1cc(Cl)c(Cl)cc1c(=O)n2CCCn1ccnc1)OCO3 | < 10 | > 100000 | 53.8 | > 100000 | < 10 | 17600 | < 10 | > 100000 | 11.1 | 20800 | 99.6 | > 100000 | < 10 | 835 | < 10 | 56.6 | < 10 | 13.1 | 66.5 | > 100000
O=C(c1cccs1)c1c(C(F)(F)F)n([O-])c2ccc(C(F)(F)F)cc2[n+]1=O | 328 | 909 | 647 | 1280 | 170 | 314 | 190 | 364 | 251 | 1210 | 189 | 357 | 204 | 455 | 195 | 387 | 464 | 1000 | 451 | 908
Nc1nc(N)[n+]([O-])c(N)c1NCO | – | > 100000 | – | > 100000 | – | > 100000 | – | > 100000 | – | > 100000 | – | > 100000 | – | > 100000 | – | > 100000 | – | > 100000 | – | > 100000
